For orientation: Km means the concentration of substrate that gives half-maximal velocity.

Results on 1 compound are retold here after USRE38825E1, “Glyphosate tolerant plants” (Monsanto Technology LLC, priority 1990, dated 2005).

The target of experiment [1] is LBAA glyphosate oxidoreductase variant w1v2w3 (SER84, ARG153, HIS334) (Ochrobactrum sp. G-1, UniProt D2KI28, K153R/S2A). In words: Kinetic analysis of domain switches, clone w1v2w3. In kind it is biochemical, bacterial isolate LBAA (Pseudomonas strain LBAA). To be noted: substrate glyphosate. How it is done:
(§1) The mutagenesis procedure used was that of Mn++-poisoned PCR and the template was a linearized glyphosate oxidoreductase gene plasmid containing the synthetic glyphosate oxidoreductase gene (SEQ ID NO:8). The oligonucleotide primers used were homologous to regions in the vector and flanking the glyphosate oxidoreductase gene. The PCR conditions employed were as follows: 1 minute at 94° C., 2 minutes at 55° C., and 3 minutes at 72° C. and with 35 cycles. A 5:1 ratio of dCTP+dGTP+TTP to dATP was used. The reactions contained MnCl2 at 125, 250, 375, or 500 μM. After the reaction, the amplified product was recloned into a vector containing a weak E. coli promoter. This vector was a pBR327 derivative containing the araBAD promoter and suitable cloning sites. […] Growth rates were determined by measuring A550 over a 96 hour period. […] Protein concentrations were determined using the Bio-Rad protein dye-binding assay. […] Ten minutes was determined to be the optimal time for the enzyme assay using 10 μg lysate. […] Enzyme activity was determined from the amount of glyoxylate-DNPH adduct formed by measuring A520 against a standard of glyoxylate. […] The Km and Vmax were determined from Lineweaver Burk, Eadie-Hofstee and hyperbolic kinetic plots. […]

Experiment [2] concerns the target LBAA glyphosate oxidoreductase variant w1v2v3 (SER84, ARG153, ARG334) (Ochrobactrum sp. G-1, UniProt D2KI28, H334R/K153R/S2A). In words: Kinetic analysis of domain switches, clone w1v2v3. Type of experiment: biochemical, bacterial isolate LBAA (Pseudomonas strain LBAA). Particulars: substrate glyphosate. The procedure:
as §1

Experiment [3] relates to Pseudomonas sp. strain LBr glyphosate oxidoreductase. Briefly: Km of glyphosate oxidoreductase from Pseudomonas sp. strain LBr. In kind it is biochemical. The text has this: Using this PCR approach, glyphosate oxidoreductase genes from a number of sources have been isolated. The presence of the glyphosate oxidoreductase activity was confirmed by cloning the glyphosate oxidoreductase gene from chromosomal DNA prepared from Pseudomonas sp. strain LBr (Jacob et al., 1988) and using primers homologous to the N- and C-termini of the LBAA glyphosate oxidoreductase gene and containing the following suitable restriction cloning sites: 5′-[…] ATG-3′ (SEQ ID NO:13) and 5′-[…] AGTAC-3′ (SEQ ID NO:14). Cyclotherm parameters used for these PCR reactions is as follows: • Denature at 94° C. for 1 minute; • Anneal at 60° C. for 2 minutes; • Polymerize at 72° C. for 3 minutes, • 30 cycles, no autoextension, linked to 4° C. incubation. The expected ˜1.3 kb PCR produced was generated and following digestion with NdeI and HindIII, this fragment was cloned into pMON2123 for expression of the encoded enzyme.

Take `O=C(O)CNCP(=O)(O)O` [glyphosate, N-phosphonomethyl-glycine]: the VmKm is given as 0.026 in experiment [1] and 0.28 in experiment [2]. In addition, in experiment [3], the Km was 25 mM.
